Assay: Solubility in water
Format: physicochemical

Structure (SMILES): O=C(CCN1C(=O)C=CC1=O)NCCCOCCOCCOCCCNC(=O)[C@H](Cc1c[nH]cn1)NC(=S)Nc1ccc(CNC(=O)CCCC[C@@H]2SC[C@@H]3NC(=O)N[C@@H]32)cc1 [Example 3]
- solubility in water: completely soluble
